Values of other authors, collected in patent US5993850A, “Preparation of multivesicular liposomes for controlled release of encapsulated biologically active substances” (priority 1994, dated 1999).

System: strains of both gram negative and gram positive bacteria
Conditions: background statement; cited from earlier work

NCC[C@H](O)C(=O)N[C@@H]1C[C@H](N)[C@@H](O[C@H]2O[C@H](CN)[C@@H](O)[C@H](O)[C@H]2O)[C@H](O)[C@H]1O[C@H]1O[C@H](CO)[C@@H](O)[C@H](N)[C@H]1O [amikacin]
antibacterial activity: clinically significant activity against strains of both gram negative and gram positive bacteria
